Results as given in patent US20170348306A1, “METHODS OF TREATING CANCER” (GLAXOSMITHKLINE LLC, priority 2011, published 2017).

Assays:
[1] = tested on: H3K27me3 in DLBCL cell lines; assay: ELISA-based quantitation of H3K27me3 in treated cells; conditions: Homo sapiens, EZH2 WT and mutant DLBCL cell lines, 48 hours
Procedure: Biochemical assays utilized the 5-member PRC2 complex (human Flag-EZH2, EED, SUZ12, AEBP2, RbAp48) containing either WT or mutant EZH2, [^3H-]SAM and the indicated peptide substrate; reactions were incubated for 30 minutes. Global histone modification levels were determined by ELISA or western blot methods using antibodies specific for total histone H3, H3K27me1, H3K27me2, or H3K27me3. Cell proliferation and Caspase-3/7 activity were assessed using CellTiter-Glo and Caspase-Glo 3/7 (Promega), respectively. Gene expression profiling was conducted using Affymetrix Human Genome U133 Plus 2.0 microarrays. Differentially-expressed probe sets were determined by fitting the data to a linear model using the limma statistical package (http://www.bioconductor.org) and carrying out pair-wise contrasts of treated versus control. […] H3K27me3 ChIP reads were aligned using Bowtie (56). […] A custom PERL script was utilized to quantify the average basal H3K27me3 ChIP-seq tag density across gene sets. […]
Following tissue homogenization, tumor tissue lysates were prepared using the Epigentek Histone Extraction kit (OP-0006). […] Luminata Forte substrate (Millipore) was added 5 minutes before chemiluminescence was quantified with an EnVision multi-label plate reader (PerkinElmer). H3K27me3 levels were normalized to total H3 values and IC50 values were determined using a 4-parameter curve fit.

[2] = tested on: RC-K8; assay: Cell proliferation assay (6 days, CellTiter-Glo); assay type: cell-based; conditions: Homo sapiens, RCK8, 144 h, B-NHL, EZH2 D185H (HET), read-out: AVERAGE GROWTH IC50
From the text: (§1) Thus, Example 22 and Table 6 better reflect the inhibition of HZH2 inhibitors on cell lines, e.g. the lymphoma cell lines. DLBCL cell lines were the most sensitive to EZH2 inhibition (FIG. 11a). […] Evaluation of GSK126 in additional lymphoma cell lines and extensive genomic and epigenomic characterization will be required to fully elucidate the determinants of sensitivity among lymphoma subtypes.
(§2) Biochemical assays utilized the 5-member PRC2 complex (human Flag-EZH2, EED, SUZ12, AEBP2, RbAp48) containing either WT or mutant EZH2, [^3H-]SAM and the indicated peptide substrate; reactions were incubated for 30 minutes. Global histone modification levels were determined by ELISA or western blot methods using antibodies specific for total histone H3, H3K27me1, H3K27me2, or H3K27me3. Cell proliferation and Caspase-3/7 activity were assessed using CellTiter-Glo and Caspase-Glo 3/7 (Promega), respectively. Gene expression profiling was conducted using Affymetrix Human Genome U133 Plus 2.0 microarrays. Differentially-expressed probe sets were determined by fitting the data to a linear model using the limma statistical package (http://www.bioconductor.org) and carrying out pair-wise contrasts of treated versus control. Significant probe sets were filtered for detection (log2 signal threshold of 8), an average fold-change >2 or <−2, or >1.5 or <−1.5, where indicated, with p-values adjusted for multiple testing correction by FDR (Benjamini Hochberg)<0.1. H3K27me3 ChIP reads were aligned using Bowtie (56). H3K27me3 enrichment peaks were identified using SICER (57) with optimized parameters. A custom PERL script was utilized to quantify the average basal H3K27me3 ChIP-seq tag density across gene sets. All in vivo studies were conducted after review by the Institutional Animal Care and Use Committee at GSK and in accordance with the GSK Policy on the Care, Welfare and Treatment of Laboratory Animals. GSK126 and vehicle were administered to mice intraperitoneally. Two-tailed t-tests were conducted assuming two samples of equal variance.
(§3) The optimal cell seeding was determined empirically for all cell lines by examining the growth of a wide range of seeding densities in a 384-well format to identify conditions that permitted proliferation for 6 days. […] Plates were incubated for 6 days at 37° C. in 5% CO2. Cells were then lysed with CellTiter-Glo (Promega) and chemiluminescent signal was detected with a TECAN Safire2 microplate reader. In addition, an untreated plate of cells was harvested at the time of compound addition (T0) to quantify the starting number of cells. CTG values obtained after the 6 day treatment were expressed as a percent of the T0 value and plotted against compound concentration.

[3] = tested on: SU-DHL-5; assay: Cell proliferation assay (6 days, CellTiter-Glo); assay type: cell-based; conditions: Homo sapiens, 144 h, DLBCL, EZH2 WT, read-out: AVERAGE GROWTH IC50
From the text: as §1, §2, §3

[4] = tested on: SU-DHL-10; assay: Cell proliferation assay (6 days, CellTiter-Glo); assay type: cell-based; conditions: Homo sapiens, SU-DHL10, 144 h, DLBCL, EZH2 Y641F (HET), read-out: AVERAGE GROWTH IC50
From the text: as §1, §2, §3

[5] = tested on: H3K27me3/2/1, histone H3, EZH2, SUZ12, EED in lymphoma cell lines; assay: Western blot of H3K27 methylation status and PRC2 components following GSK126 treatment; assay type: cell-based, human
Procedure: Cell lines were obtained from the American Type Culture Collection or the Deutsche Sammlung von Mikroorganismen und Zellbulturen and maintained in the recommended cell culture media at 37° C. in 5% CO2. Cells were lysed with radioimmunoprecipitation (RIPA) buffer (ThermoScientific) and western blot analysis was conducted as previously described (41). Antibodies were obtained as previously described (41) or from Cell Signaling Technology (SUZ12, 3737), or Santa Cruz Biotechnology (EED, sc-28701).
Cells (2×10^5/well) were seeded into six-well tissue culture plates in the appropriate cell culture media 24 hours before treatment.

[6] = tested on: DLBCL cell lines; assay: Gene expression profiling (Affymetrix Human Genome U133 Plus 2.0); assay type: cell-based; conditions: 72 hours
Procedure: as §2
Cells (2×10^5/well) were seeded into six-well tissue culture plates in the appropriate cell culture media 24 hours before treatment. […] Cells were collected into Trizol reagent (Invitrogen) and total RNA was isolated via phenol:chloroform extraction and the RNeasy kit (Qiagen) according to the manufacturer's instructions. Total RNA was labeled and hybridized to Affymetrix Human Genome U133 Plus 2.0 oligonucleotide microarrays arrays according to the manufacturer's instructions (Affymetrix, Santa Clara, Calif., USA) at Expression Analysis (Durham, N.C.). […] Principal component and correlation analysis were used to confirm data reproducibility (FIG. 16).
CEL files, corresponding to individual samples, were processed by the Micro Array Suite 5.0 (MASS) algorithm (http://www.affyrmetrix.com/support/index.affx) where signal values were scaled to a target intensity of 500 and log2 transformed. Differentially expressed probe sets were determined by fitting the data to a linear model and carrying out pair-wise contrasts of treated versus control. […]

[7] = tested on: KARPAS-422; assay: Cell proliferation assay (6 days, CellTiter-Glo); assay type: cell-based, human
From the text: as §1, §2, §3

[8] = tested on: Pfeiffer; assay: Cell proliferation assay (6 days, CellTiter-Glo); assay type: cell-based, human
From the text: as §1, §2, §3

CC[C@H](C)n1cc(C)c2c(C(=O)NCc3c(C)cc(C)[nH]c3=O)cc(-c3ccc(N4CCNCC4)nc3)cc21 [GSK126]
IC50 [1]: 10 to 252 nM | IC50 [2]: 4530 nM | IC50 [3]: 2300 nM | IC50 [4]: 448 nM | Total histone H3 and PRC2 components ([5]; 25 nM-2 μM, 72 hrs): not affected | H3K27me1 level ([5]; 72 hours): only weakly reduced at the highest inhibitor concentration | up-regulated probe sets common to at least 4 of 5 mutant cell lines ([6]; Pfeiffer, KARPAS-422, WSU-DLCL2, SU-DHL-10, SU-DHL-6, 500 nM): 35 probe sets | down-regulated probe sets ([6]; Toledo, 2 μM GSK126): 10 probe sets | up-regulated probe sets ([6]; Toledo, 2 μM GSK126): 23 probe sets | share of up-regulated among gene expression changes ([6]; five most sensitive EZH2 mutant cell lines, 500 nM): 69-95% | time required for maximal potency on growth [7]: 6 to 7 days | IC50 ([7]; Homo sapiens, 144 h, 6 days, DLBCL, EZH2 Y641F (HET), read-out: AVERAGE GROWTH IC50): 232 nM | time after which net decreases in cell number were evident [8]: 3 days | time after which potent inhibition of cell proliferation was observed [8]: 2 days | IC50 ([8]; Homo sapiens, 144 h, […], 6 days, DLBCL, EZH2 A677G (HET), read-out: AVERAGE GROWTH IC50): 28 nM
